# Reference: patent publication US6365379B1, “Zinc finger peptide cleavage of nucleic acids” (ISIS Pharmaceuticals, Inc., priority 1998, dated 2002)
# Assays:
# Type in all cases: biochemical
# [1] = system: 12079 (2′-OMe) single stranded oligonucleotide, SEQ ID 3; test: Initial rate of cleavage of single stranded oligonucleotide by the finger peptide; parameters: unit not given here; settings: substrate 12079 (2′-OMe); 50 nM wild-type peptide, 500 nM oligonucleotide
# Method: (§1) FIG. 1A depicts the Kinetics of RNA Cleavage by the Finger Peptide of Seq. I.D. No. 1. Multiple turnover kinetics are shown for RNA cleavage by the wild-type peptide (open box) and wild-type peptide coordinated with zinc (open triangle). […] I.D. No. 1. Multiple turnover kinetics were performed in 100 μL containing 50 nM peptide, 100 to 1000 nM or a 20—mer RNA oligonucleotide denominated 9713 and having Seq. I.D. No. 7, as […] 32P labeled RNA in 20 mM Sodium Phosphate, pH 7.0, 100 mM KCl, 1 mM EDTA, and 0.1% NP40. Digestion reaction were incubated at 37° C. and quenched at specific time points in 6 M urea. Digestion products were analyzed by denaturing polyacrylamide gel electrophoresis. […] Single turnover kinetics were performed as described above with the exception that peptide ranging in concentration from 50 to 500 nM was added to 50 nM of the 9713 RNA, Seq. I.D. No. 7.
# (§2) Initial rates of cleavage of several single stranded oligonucleotides were determined as described in connection with FIG. 1 with the exception that 50 nM wild-type peptide and 500 nM oligonucleotide were used. Arrows indicate the position of the peptide induced cleavage. The relative intensity of the cleavage product for each respective cleavage sites is indicated by the length of the arrows.
# [2] = system: 4701 (DNA) single stranded oligonucleotide, SEQ ID 2; test: as above; parameters: unit not given here; settings: substrate 4701 (DNA); 50 nM wild-type peptide, 500 nM oligonucleotide
# Method: as §1, §2
# [3] = system: 2755 (RNA) single stranded oligonucleotide, SEQ ID 5; test: as above; parameters: unit not given here; settings: substrate 2755 (RNA); 50 nM wild-type peptide, 500 nM oligonucleotide
# Method: as §1, §2
# [4] = system: 3058 (RNA) single stranded oligonucleotide, SEQ ID 4; test: as above; parameters: unit not given here; settings: substrate 3058 (RNA); 50 nM wild-type peptide, 500 nM oligonucleotide
# Method: as §1, §2
# [5] = system: 12147 (RNA) single stranded oligonucleotide, SEQ ID 6; test: as above; parameters: unit not given here; settings: substrate 12147 (RNA); 50 nM wild-type peptide, 500 nM oligonucleotide
# Method: as §1, §2
# [6] = system: 20-mer RNA oligonucleotide 9713, Seq. I.D. No. 7; test: Multiple turnover kinetics of RNA cleavage, Lineweaver-Burk analysis; settings: zinc-free form of the finger peptide
# Method: as §1
# RNA [7] = test: pH dependence of RNA cleavage; settings: bell shaped pH profile, pH 4 to 9
# Method: I.D. No. 1. Initial rates were determined as described in connection with FIG. 2. For each rate determination the pH was adjusted using either 20 mM sodium acetate, pH 4, 20 mM sodium phosphate, pH 5 to pH 8 or 20 mM sodium carbonate, pH 9.
# [8] = system: 9713 (RNA) 20-mer RNA oligonucleotide, Seq. I.D. No. 7; test: Initial rate of cleavage of single stranded oligonucleotide by the peptides; parameters: unit not given here
# Method: as §1
# Initial rates of cleavage of several single stranded oligonucleotides were determined as described in connection with FIG. 1 with the exception that 50 nM wild-type peptide and 500 nM oligonucleotide were used. […]
# I.D. No. 1. […] Reactions were quenched at 30 min. and digestion products analyzed by denaturing polyacrylamide gel electrophoresis.
# Initial rates were determined as described in connection with FIG. 2. Peptide structure was determined by SDS PAGE and LC-MS.
# RNA [9] = test: Effect of divalent cations on RNA cleavage activity; settings: Mg2+ and Mn2+
# Method: (§3) I.D. No. 1. Digestion reactions were performed as described in FIG. 1 in the presence of either Mg2+ (solid) or Mn2+ (hashed). Reactions were quenched at 30 min. and digestion products analyzed by denaturing polyacrylamide gel electrophoresis.
# single stranded RNA = test: RNA cleavage (ribonuclease) activity of the peptides
# Method: as §1, §3
# [10] = system: RNA substrate 9713, Seq. I.D. No. 7; test: Cleavage product analysis of RNA substrate
# Description: FIG. 3A presents a schematic cleavage product analysis of RNA aubstrate. RNA substrate 9713, Seq. I.D. No. 7, was internally labeled at the penultimate 3′ phosphate using (^32P) cytidine bisphosphate and T4 RNA ligase. The 3′ terminal phosphate was removed using calf intestinal phosphatase and the RNA digested with the wild type peptide as described in the schematic of FIG. 3A. The digestion reactions were divided into equal aliquots and one aliquot subjected to an additional dephosphorylation. The digested products were analyzed by denaturing polyacrylamide gel electrophoresis.
# [11] = system: Single strand DNA, double strand RNA and DNA, and 2′-methoxy modified sequences; test: Cleavage selectivity against other nucleic acids
# Method: as §2
substance,measurement,setting,value
HOOC-KTYQCQYCEY RSADSSNLKTHIKTKHSKEK-NH2 [Wild type],V0,[1],0
same,V0,[2],0
same,V0,[3],422
same,V0,[4],153
same,V0,[5],1200
same,Kcat,[6],0.96 s⁻¹
same,Km,[6],0.105 µM
same,V0,[6],6 nmol/L/min
same,pH for RNA cleavage,RNA [7],7.0
same,V0,"[8]; substrate 9713 (RNA), 50 nM wild-type peptide, 500 nM oligonucleotide",6100
same,V0 (9713),"[8]; substrate 9713 RNA, wild type and mutant peptides",6000 ± 130
same,requirement of divalent cations for catalysis,RNA [9],not to be required for catalysis
same,cleavage site specificity within single stranded RNA,single stranded RNA,preferentially cleave 5′-pyr-A-3′
same,cleavage rate of RNA sequences containing 5′-pyr-A-3′ relative to those without,single stranded RNA; fold faster,10-30 fold
same,ribonuclease activity on coordination of the peptide with zinc,single stranded RNA; peptide coordinated with zinc,complete loss of ribonuclease activity
same,termini of RNA cleavage products,[10]; listed as SEQ ID No. 1,3′-phosphate and 5′-hydroxyl
same,termini of RNA cleavage products,[10]; listed as wild type peptide,3′-phosphate and 5′-hydroxyl termini
same,hydrolysis of non single strand RNA substrates,[11]; listed as SEQ ID No. 1,not hydrolyzed
same,hydrolysis of non single strand RNA substrates,[11]; listed as the peptide,not degraded
